According to ChEMBL document CHEMBL2413038, “Synthesis and bioevaluation of novel 4-aminoquinoline-tetrazole derivatives as potent antimalarial agents” (Eur J Med Chem, 2013):
Converted amounts (≈) assume the structure as drawn. The source made the active and inactive calls. No cut-off for these calls is given here.

Test system: Plasmodium falciparum
Assay: Antimalarial activity against chloroquine-resistant Plasmodium falciparum K1 after 72 hrs by MSF assay
Assay type: functional, organism-based
Conditions: K1, 72 h

Compound	IC50
COc1ccc(C(Nc2ccc(Nc3ccnc4cc(Cl)ccc34)cc2)c2nnnn2C(C)(C)C)cc1 (stereo not drawn)	384 nM
CC(C)(C)n1nnnc1C(c1ccc(Cl)cc1)N1CCN(c2ccnc3cc(Cl)ccc23)CC1 (stereo not drawn)	159 nM
CC(C)(C)n1nnnc1C(Nc1ccc(Nc2ccnc3cc(Cl)ccc23)cc1)c1ccccc1 (stereo not drawn)	> 1020 nM
Clc1ccc2c(Nc3ccc(NC(c4ccc(Br)cc4)c4nnnn4C4CCCCC4)cc3)ccnc2c1 (stereo not drawn)	73.7 nM
CC(C)(C)n1nnnc1C(NCCCNc1ccnc2cc(Cl)ccc12)c1cccc2ccccc12 (stereo not drawn)	170 nM

Test system: Plasmodium yoelii
Assay: Antimalarial activity against chloroquine-resistant Plasmodium yoelii N-67 infected in Swiss mouse assessed as mouse survival at 50 mg/kg, ip qd for 4 days measured on day 28 post infection relative to control
Assay type: functional
Conditions: not given

Compound	Activity
CC(C)(C)n1nnnc1C(c1ccc(Cl)cc1)N1CCN(c2ccnc3cc(Cl)ccc23)CC1 (stereo not drawn)	inactive
Clc1ccc2c(Nc3ccc(NC(c4ccc(Br)cc4)c4nnnn4C4CCCCC4)cc3)ccnc2c1 (stereo not drawn)	inactive

Test system: Plasmodium yoelii
Assay: Antimalarial activity against chloroquine-resistant Plasmodium yoelii N-67 infected in Swiss mouse assessed as mean survival time at 50 mg/kg, ip qd for 4 days
Assay type: functional
Conditions: route intraperitoneal

Compound	MST
CC(C)(C)n1nnnc1C(c1ccc(Cl)cc1)N1CCN(c2ccnc3cc(Cl)ccc23)CC1 (stereo not drawn)	13 days
Clc1ccc2c(Nc3ccc(NC(c4ccc(Br)cc4)c4nnnn4C4CCCCC4)cc3)ccnc2c1 (stereo not drawn)	12.6 days

Test system: Plasma
Assay: Inhibition of beta-hematin formation in Plasmodium yoelii-infected Swiss albino mouse plasma using hemin as substrate after 16 hrs
Assay type: functional, cell-free
Conditions: not given

Compound	IC50	inhibition
COc1ccc(C(Nc2ccc(Nc3ccnc4cc(Cl)ccc34)cc2)c2nnnn2C(C)(C)C)cc1 (stereo not drawn)	5.55 µg/mL (≈ 10.8 µM)	Dose-dependent effect
CC(C)(C)n1nnnc1C(c1ccc(Cl)cc1)N1CCN(c2ccnc3cc(Cl)ccc23)CC1 (stereo not drawn)	5.32 µg/mL (≈ 10.7 µM)	Dose-dependent effect
CC(C)(C)n1nnnc1C(Nc1ccc(Nc2ccnc3cc(Cl)ccc23)cc1)c1ccccc1 (stereo not drawn)	5.55 µg/mL (≈ 11.5 µM)	Dose-dependent effect
Clc1ccc2c(Nc3ccc(NC(c4ccc(Br)cc4)c4nnnn4C4CCCCC4)cc3)ccnc2c1 (stereo not drawn)	4.38 µg/mL (≈ 7.44 µM)	Dose-dependent effect
CC(C)(C)n1nnnc1C(NCCCNc1ccnc2cc(Cl)ccc12)c1cccc2ccccc12 (stereo not drawn)	4.45 µg/mL (≈ 8.9 µM)	Dose-dependent effect

Test system: Plasmodium falciparum
Assay: Antimalarial activity against chloroquine-sensitive Plasmodium falciparum 3D7 after 72 hrs by MSF assay
Assay type: functional, organism-based
Conditions: 3D7, 72 h

Compound	IC50
COc1ccc(C(Nc2ccc(Nc3ccnc4cc(Cl)ccc34)cc2)c2nnnn2C(C)(C)C)cc1 (stereo not drawn)	57.7 nM
CC(C)(C)n1nnnc1C(c1ccc(Cl)cc1)N1CCN(c2ccnc3cc(Cl)ccc23)CC1 (stereo not drawn)	787 nM
CC(C)(C)n1nnnc1C(Nc1ccc(Nc2ccnc3cc(Cl)ccc23)cc1)c1ccccc1 (stereo not drawn)	59.6 nM
Clc1ccc2c(Nc3ccc(NC(c4ccc(Br)cc4)c4nnnn4C4CCCCC4)cc3)ccnc2c1 (stereo not drawn)	92.7 nM
CC(C)(C)n1nnnc1C(NCCCNc1ccnc2cc(Cl)ccc12)c1cccc2ccccc12 (stereo not drawn)	216 nM

Test system: Plasmodium yoelii
Assay: Antimalarial activity against chloroquine-resistant Plasmodium yoelii N-67 infected in Swiss mouse assessed as cured animal at 50 mg/kg, ip qd for 4 days measured on day 28 post infection relative to control
Assay type: functional
Conditions: not given

Compound	Activity
CC(C)(C)n1nnnc1C(c1ccc(Cl)cc1)N1CCN(c2ccnc3cc(Cl)ccc23)CC1 (stereo not drawn)	inactive
Clc1ccc2c(Nc3ccc(NC(c4ccc(Br)cc4)c4nnnn4C4CCCCC4)cc3)ccnc2c1 (stereo not drawn)	inactive

Test system: Plasmodium yoelii
Assay: Antimalarial activity against chloroquine-resistant Plasmodium yoelii N-67 infected in Swiss mouse assessed as suppression of parasitaemia level at 50 mg/kg, ip qd for 4 days relative to control
Assay type: functional
Conditions: route intraperitoneal

Compound	Activity
CC(C)(C)n1nnnc1C(c1ccc(Cl)cc1)N1CCN(c2ccnc3cc(Cl)ccc23)CC1 (stereo not drawn)	73.91%
Clc1ccc2c(Nc3ccc(NC(c4ccc(Br)cc4)c4nnnn4C4CCCCC4)cc3)ccnc2c1 (stereo not drawn)	69.56%

Test system: not listed separately
Assay: Selectivity index, ratio of CC50 for African green monkey Vero cells to IC50 for Plasmodium falciparum
Assay type: functional
Conditions: not given

Compound	Ratio CC50/IC50
COc1ccc(C(Nc2ccc(Nc3ccnc4cc(Cl)ccc34)cc2)c2nnnn2C(C)(C)C)cc1 (stereo not drawn)	702.34
CC(C)(C)n1nnnc1C(c1ccc(Cl)cc1)N1CCN(c2ccnc3cc(Cl)ccc23)CC1 (stereo not drawn)	182.96
CC(C)(C)n1nnnc1C(Nc1ccc(Nc2ccnc3cc(Cl)ccc23)cc1)c1ccccc1 (stereo not drawn)	2383.47
Clc1ccc2c(Nc3ccc(NC(c4ccc(Br)cc4)c4nnnn4C4CCCCC4)cc3)ccnc2c1 (stereo not drawn)	1191.58
CC(C)(C)n1nnnc1C(NCCCNc1ccnc2cc(Cl)ccc12)c1cccc2ccccc12 (stereo not drawn)	58.67

Test system: Plasmodium falciparum
Assay: Resistance index, ratio of IC50 for chloroquine-resistant Plasmodium falciparum K1 to IC50 for chloroquine-sensitive Plasmodium falciparum 3D7
Assay type: functional
Conditions: not given

Compound	Ratio IC50
COc1ccc(C(Nc2ccc(Nc3ccnc4cc(Cl)ccc34)cc2)c2nnnn2C(C)(C)C)cc1 (stereo not drawn)	6.6
CC(C)(C)n1nnnc1C(c1ccc(Cl)cc1)N1CCN(c2ccnc3cc(Cl)ccc23)CC1 (stereo not drawn)	0.2
Clc1ccc2c(Nc3ccc(NC(c4ccc(Br)cc4)c4nnnn4C4CCCCC4)cc3)ccnc2c1 (stereo not drawn)	0.8
CC(C)(C)n1nnnc1C(NCCCNc1ccnc2cc(Cl)ccc12)c1cccc2ccccc12 (stereo not drawn)	0.8

Test system: Plasmodium falciparum
Assay: Ratio of chloroquine IC50 to compound IC50 for chloroquine-resistant Plasmodium falciparum K1
Assay type: functional
Conditions: not given

Compound	Ratio IC50
Clc1ccc2c(Nc3ccc(NC(c4ccc(Br)cc4)c4nnnn4C4CCCCC4)cc3)ccnc2c1 (stereo not drawn)	3.38
